Experimental data taken from publication PMC5460274 (Scientific Reports, 2017).
Each block holds one compound with its values, some of them ahead of it.

Tests used:
Assay type in all cases: cell-based
[1] = target: T1, dimethylarginine dimethylaminohydrolase 1 (DDAH1) (Homo sapiens, UniProt O94760); assay: UPLC-MS of L-citrulline formation; […] inhibition at […], reversible on dilution
T1 construct: recombinant DDAH1 over-expressed in HEK293T cells (lysate)

[2] = target: T1, dimethylarginine dimethylaminohydrolase 1 (DDAH1); assay: UPLC-MS of L-citrulline formation; […] inhibition at […], time-dependent, reversible on dilution
[3] = target: T1, dimethylarginine dimethylaminohydrolase 1 (DDAH1); assay: UPLC-MS of L-citrulline formation from ADMA; […] inhibition at […]

T1 sequence (O94760 2-285): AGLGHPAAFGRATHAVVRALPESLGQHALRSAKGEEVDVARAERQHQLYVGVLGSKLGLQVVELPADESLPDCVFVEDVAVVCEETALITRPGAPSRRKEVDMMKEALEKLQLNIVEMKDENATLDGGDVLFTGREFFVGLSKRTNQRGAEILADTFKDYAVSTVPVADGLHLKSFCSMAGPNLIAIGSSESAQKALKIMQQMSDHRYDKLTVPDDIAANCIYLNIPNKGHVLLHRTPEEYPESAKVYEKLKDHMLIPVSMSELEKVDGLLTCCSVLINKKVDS

% [1]: 24%
Compound: COc1ccc2[nH]c([S+]([O-])Cc3ncc(C)c(OC)c3C)nc2c1 (stereo not drawn) [OPZ, omeprazole]

% [2]: 23%
Compound: Cc1c(OCC(F)(F)F)ccnc1C[S+]([O-])c1nc2ccccc2[nH]1 (stereo not drawn) [LPZ, lansoprazole]

% [3]: 72%
Compound: COCCNC(N)=NCCC[C@H](N)C(=O)NS(C)(=O)=O [10a, ZST316]
